Earlier results on one compound are cited in patent publication US20060139426A1, “Ink, ink set, processing solution, recording method, recording medium, ink tank, and recording device” (Fuji Xerox Co., Ltd., priority 2004, published 2006).

Each structure is given as a SMILES string.

The pKa is the pH at which an ionisable group is half protonated.

Consider `O=C(O)c1ccco1` [2-Furancarboxylic acid], for which the pKa is given as 2.4.
